Experimental data: patent US5817669A, “Compounds, processes for the preparation thereof and anti-tumor agents” (Dainippon Pharmaceutical Co., Ltd., priority 1994, dated 1998)
Like-named read-outs stand apart in the source and are kept apart here.

How the values were obtained:
[1] = system: murine P388 lymphocytic leukemia cells; test: In vitro anti-tumor activity against murine P388 lymphocytic leukemia cells (MTT, 72 h); type: cell-based; conditions: Mus musculus; murine P388 cells, 72 h, MTT; read-out: IC50 (50% proliferation inhibitory concentration)
In short: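 MTT assay, 72 h exposure; formazan dissolved in DMSO after centrifugation and supernatant removal. Absorbance read at 570 nm with 690 nm reference. IC50 (μg/ml) by least squares.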

[2] = system: KB human nasopharynx cancer; test: In vitro anti-tumor activity against KB human nasopharynx cancer (MTT); type: cell-based; conditions: KB, 72 h, MTT, read-out: IC50
In short: (§1)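 500–2,000 cells/well, 20 h preculture 37° C/5% CO2; compound 72 h; MTT (5 mg/ml) 4 h; supernatant aspirated, formazan dissolved in DMSO.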

HMV2 human melanoma = test: In vitro anti-tumor activity against HMV-2 human melanoma (MTT); type: cell-based; conditions: HMV-2, 72 h, MTT, read-out: IC50
In short: as §1

[3] = system: AZ521 human stomach cancer; test: In vitro anti-tumor activity against AZ-521 human stomach cancer (MTT); type: cell-based; conditions: AZ-521, 72 h, MTT, read-out: IC50
In short: as §1

[4] = system: MKN45 human stomach cancer; test: In vitro anti-tumor activity against MKN45 human stomach cancer (MTT); type: cell-based; conditions: MKN-45, MKN45, 72 h, MTT, read-out: IC50
In short: as §1

[5] = system: WiDr human colorectal cancer; test: In vitro anti-tumor activity against WiDr human colorectal cancer (MTT); type: cell-based; conditions: 72 h, MTT, read-out: IC50
In short: as §1

C33A human cervix cancer = test: In vitro anti-tumor activity against C-33A human cervix cancer (MTT); type: cell-based; conditions: C-33A, 72 h, MTT, read-out: IC50
In short: as §1

A427 human lung cancer = test: In vitro anti-tumor activity against A-427 human lung cancer (MTT); type: cell-based; conditions: A-427, 72 h, MTT, read-out: IC50
In short: as §1

[6] = system: murine P388 lymphocytic leukemia cells; test: Increases in life span of mice implanted with murine P388 lymphocytic leukemia cells; type: in vivo, SLC: BDF1 mice; conditions: Mus musculus, P388, ip, 720 h, ip
[7] = system: colon 26 murine tumor cells; test: Tumor growth inhibition effect on colon 26 murine tumor cells implanted mice; type: in vivo, SLC: CDF1 mice; conditions: Mus musculus, Colon 26, 504 h; ip, 3.13 mg/kg once a day, days 1-9; day 21 or 22; read-out: Tumor growth inhibition rate IR (%)
In short: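 CDF1 female mice (7–9 weeks, 7 per group) implanted intracutaneously in the abdomen with 2% brei of colon 26 cells. Compound given ip once daily from day 1 to day 9. Tumor weight estimated from diameters on day 21 or 22; IR % = [1 − (treated MTW/control MTW)] × 100.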

Acute toxicity = conditions: mouse, in vivo, mice, 14th day
Experimental: Solutions of test compounds in predetermined concentrations were administered (0.1 ml/10 g body weight) to female BALB/c CrSlc mice (5 to 10 animals per one group, 10 weeks old) respectively, and, thus, LD50 values were calculated from the mortalities of the mice on the 14th day after the administration.

Solubility = conditions: water
tumor = conditions: Cancer Research 52, 2818 (1992); cited from earlier work
[8] = NCI criterion, read-out: Evaluation
[9] = days 1 and 5, in solution, read-out: ILS (%) (in solution)
[10] = days 1 and 5, in suspension, read-out: ILS (%) (in suspension)

`Cl.NC1CCN(c2ccc3c(=O)c(C(=O)O)cn(-c4nccs4)c3n2)C1` (stereo not shown) [Compound 3, 7-(3-amino-1-pyrrolidinyl)-1,4-dihydro-4-oxo-1-(2-thiazolyl)-1,8-naphthyridine-3-carboxylic acid hydrochloride] showed an IC50 [1] of 0.0103 µg/mL, an IC50 [2] of 0.153 µg/mL and an IC50 (HMV2 human melanoma) of 0.21 µg/mL. For the same molecule, the IC50 [3] was 0.181 µg/mL, the IC50 [4] was 0.364 µg/mL and the IC50 [5] was 1.08 µg/mL. It also gave an IC50 (C33A human cervix cancer) of 0.184 µg/mL, an IC50 (A427 human lung cancer) of 0.0588 µg/mL and an ILS at 1.56 mg/kg [6, 8] of 20 to 74%. The ILS at 3.13 mg/kg [6, 8] was > 75%, the ILS at 6.25 mg/kg [6, 8] was > 75% and the ILS at 12.5 mg/kg [6, 8] was > 75%. For the same molecule, the ILS at 25 mg/kg [6, 8] was > 75%, the ILS at 1.56 mg/kg [6, 9] was 63% and the ILS at 3.13 mg/kg [6, 9] was 75%. The ILS at 3.13 mg/kg [6, 10] was 88%, the ILS at 6.25 mg/kg [6, 9] was 113% and the ILS at 12.5 mg/kg [6, 9] was 188%. For the same molecule, the ILS at 12.5 mg/kg [6, 10] was 175%, the ILS at 25 mg/kg [6, 9] was > 275% and the inhibition in vivo at 3.13 mg/kg [7] was 77%. The LD50 at 336 h (Acute toxicity; Intraperitoneal administration (ip)) was 55.2 mg/kg, the LD50 at 336 h (Acute toxicity; Intravenous administration (iv)) was 119 mg/kg and the solubility (Solubility) was 8300 µg/mL.

For `NCC1CCN(c2c(F)cc3c(=O)c(C(=O)O)cn(C4CC4)c3c2F)C1` (stereo not shown) [Compound G], the “anti-tumor activity, in words” value (tumor) is given as “has anti-tumor activity”.
